Patent US9326515B2, “Fungicidal 3-[(1,3-thiazol-4-ylmethoxyimino)(phenyl)methyl]-2-substituted-1,2,4-oxadiazol-5(2H)-one derivatives” (BAYER INTELLECTUAL PROPERTY GMBH, priority 2011, dated 2016)
Like-named read-outs stand apart in the source and are kept apart here.

Legend:
[1] = for chromatographic logP: pH 2.7; for LogP: table 1, compounds of formula (I), HPLC reversed phase, pH 2.7, 0.1% formic acid in water / acetonitrile gradient
[2] = pH 2.7
[3] = system: Puccinia recondita; assay: Example F: in vivo preventive test on Puccinia recondita (brown rust on wheat); settings: 500 ppm, spray on wheat plants, contaminated after 24 hours, grading 12 days after contamination vs control plants
Description: The active ingredients tested are prepared by homogenization in a mixture of acetone/tween/DMSO, and then diluted with water to obtain the desired active material concentration.
Wheat plants (“Scipion” variety), sown in starter cups on a 50/50 peat soil-pozzolana substrate and grown at 22° C., are treated at the 1-leaf stage (10 cm height) by spraying with the active ingredient prepared as described above. Plants, used as controls, are treated with the mixture of acetone/tween/DMSO/water not containing the active material.
After 24 hours, the plants are contaminated by spraying the leaves with an aqueous suspension of Puccinia recondita spores (100 000 spores per ml). The spores are collected from an infected plant and are suspended in water containing 2.5 ml/l of Tween 80 at 10%. The contaminated wheat plants are incubated for 24 hours at 20° C. and at 100% relative humidity, and then for 10 days at 20° C. and at 70-80% relative humidity.
(§1) Grading (% of efficacy) is carried out 12 days after the contamination, in comparison with the control plants.
(§2) Under these conditions, good (at least 70%) or total protection is observed at a dose of 500 ppm with the following compounds: […]

[4] = system: Phytophthora infestans; assay type: in vivo; settings: 500 ppm, spray on tomato plants, contaminated after 24 hours, grading 5 days after contamination vs control plants
[5] = system: Sphaerotheca fuliginea; assay: Example D: in vivo preventive test on Sphaerotheca fuliginea (powdery mildew on cucurbits); settings: 500 ppm, spray on gherkin plants, contaminated after 24 hours, grading 12 days after contamination vs control plants
Description: (§3) The active ingredients tested are prepared by homogenization in a mixture of acetone/tween/DMSO and then diluted with water to obtain the desired active material concentration.
(§4) Gherkin plants (“Vert petit de Paris” variety), sown in starter cups on a 50/50 peat soil-pozzolana substrate and grown at 24° C., are treated at the Z11 cotyledon stage by spraying with the active ingredient prepared as described above. Plants, used as controls, are treated with the mixture of acetone/tween/DMSO/water not containing the active material.
After 24 hours, the plants are contaminated by spraying the cotyledons with an aqueous suspension of Sphaerotheca fuliginea spores (100 000 spores per ml). The spores are collected from infected plants. The contaminated gherkin plants are incubated at about 20° C. and at 70-80% relative humidity.
as §1, §2

[6] = system: Plasmopara viticola; assay: Example I: in vivo preventive test on Plasmopara viticola (grapevines); settings: 10 ppm of active ingredient, spray on young grapevine plants, inoculated after spray coating dried, evaluated 6 days after inoculation
Description: To produce a suitable preparation of active compound, 1 part by weight of active compound is mixed with the stated amounts of solvent and emulsifier, and the concentrate is diluted with water to the desired concentration.
To test for preventive activity, young plants are sprayed with the preparation of active compound at the stated rate of application. After the spray coating has dried on, the plants are inoculated with an aqueous spore suspension of Plasmopara viticola and then remain for 1 day in an incubation cabinet at approximately 20° C. and a relative atmospheric humidity of 100%. The plant is subsequently placed for 4 days in a greenhouse at approximately 21° C. and a relative atmospheric humidity of approximately 90%. The plants are then misted and placed for 1 day in an incubation cabinet.
The test is evaluated 6 days after the inoculation. 0% means an efficacy which corresponds to that of the untreated control, while an efficacy of 100% means that no disease is observed.

[7] = system: Phytophthora infestans; assay type: in vivo; settings: 100 ppm of active ingredient, spray on young tomato plants, inoculated one day after treatment, evaluated 7 days after inoculation
[8] = system: Botrytis cinerea; assay: Example C: in vivo preventive test on Botrytis cinerea (grey mould); settings: 500 ppm, spray on gherkin plants, contaminated after 24 hours, grading 4 to 5 days after contamination vs control plants
Description: as §3, §4
After 24 hours, the plants are contaminated by spraying the cotyledons with an aqueous suspension of cryopreserved Botrytis cinerea spores (50 000 spores per ml). The spores are suspended in a nutrient solution composed of 10 g/L of PDB, 50 g/L of D-Fructose, 2 g/L of NH4NO3 and 1 g/L of KH2PO4. The contaminated gherkin plants are incubated at 17° C. and at 90% relative humidity.
Grading (% of efficacy) is carried out 4 to 5 days after the contamination, in comparison with the control plants.
as §2

With `Cn1oc(=O)nc1/C(=N\OCc1csc(NC(=O)Cc2ccc(Cl)cc2)n1)c1ccccc1` [Example 98, 2-(4-chlorophenyl)-N-{4-[({[(Z)-(2-methyl-5-oxo-2,5-dihydro-1,2,4-oxadiazol-3-yl)(phenyl)methylene]amino}oxy)methyl]-1,3-thiazol-2-yl}acetamide] the chromatographic logP [1] was 3.23.

For `C#CCCCCOC(=O)Nc1nc(CON=C(c2ccccc2)c2nc(=O)on2C)cs1` [Example 30], the LogP [2] was 3.02, the “% efficacy” value [3] was 98% and the “% efficacy” value [4] was 100%. The “% efficacy” value [5] was 78% and the Eff. % [6] was 90%.

`CN(O)C(=N)/C(=N\OCc1csc(Br)n1)c1ccccc1` [Example V-3, (2Z)-2-{[(2-bromo-1,3-thiazol-4-yl)methoxy]imino}-N-hydroxy-N-methyl-2-phenylethanimidamide] showed a chromatographic logP [1] of 1.34.

In the case of `Cn1oc(=O)nc1C(=NOCc1csc(NC(=O)C2Cc3ccccc3O2)n1)c1ccccc1` (stereo not shown) [Example 24], the Eff. % [7] is reported as 84%, the LogP [2] is reported as 3.06 and the “% efficacy” value [4] is reported as 100%. For the same molecule, the Eff. % [6] was 93%.

With `COc1cccc(/C(=N/OCc2csc(NC(=O)OC3CCCCC3)n2)c2nc(=O)on2C)c1` [Example 33, Cyclohexyl {4-[({[(Z)-(3-methoxyphenyl)(2-methyl-5-oxo-2,5-dihydro-1,2,4-oxadiazol-3-yl)methylene]amino}oxy)methyl]-1,3-thiazol-2-yl}carbamate] the “% efficacy” value [4] was 88% and the chromatographic logP [1] was 3.57.

With `CC(OCc1ccccc1)C(=O)Nc1nc(CON=C(c2ccccc2)c2nc(=O)on2C)cs1` (stereo not shown) [Example 19] the “% efficacy” value [4] was 100%, the LogP [1] was 3.29 and the Eff. % [6] was 91%.

With `Cn1oc(=O)nc1C(=NOCc1csc(NC(=O)COC2CCCCC2)n1)c1ccccc1` [Example 23] the Eff. % [7] was 100%, the “% efficacy” value [4] was 100% and the LogP [1] was 3.42.

`Cn1oc(=O)nc1C(=NOCc1csc(NC(=O)COc2ccccc2)n1)c1ccccc1` [Example 8] gave an Eff. % [7] of 95%, a LogP [2] of 2.98 and an Eff. % [6] of 97%.

In the case of `C#CCCOC(=O)Nc1nc(CON=C(c2ccccc2)c2nc(=O)on2C)cs1` [Example 11], the Eff. % [7] is reported as 70%, the LogP [2] is reported as 2.56 and the Eff. % [6] is reported as 78%.

With `CCCCCCC(=O)Nc1nc(CON=C(c2ccccc2)c2nc(=O)on2C)cs1` [Example 1] the Eff. % [7] was 87%, the LogP [2] was 3.55 and the Eff. % [6] was 90%.

Work on `Cn1oc(=O)nc1/C(=N/OCc1csc(NC(=S)Cc2ccc(Cl)cc2)n1)c1ccccc1` [Example 101, 2-(4-chlorophenyl)-N-{4-[({[(E)-(2-methyl-5-oxo-2,5-dihydro-1,2,4-oxadiazol-3-yl)(phenyl)methylene]amino}oxy)methyl]-1,3-thiazol-2-yl}ethanethioamide] yielded a chromatographic logP [1] of 3.85.

In the case of `C#CCCCOC(=O)Nc1nc(CON=C(c2ccccc2)c2nc(=O)on2C)cs1` [Example 29], the LogP [2] is reported as 2.77, the “% efficacy” value [3] is reported as 94% and the “% efficacy” value [4] is reported as 95%.

In the case of `CCCCCC(=O)Nc1nc(CON=C(c2ccccc2)c2nc(=O)on2C)cs1` [Example 12], the Eff. % [7] is reported as 92%, the LogP [2] is reported as 3.19 and the Eff. % [6] is reported as 94%.

In the case of `CCC(C)SC(=O)Nc1nc(CON=C(c2ccccc2)c2nc(=O)on2C)cs1` (stereo not shown) [Example 31], the “% efficacy” value [8] is reported as 82%, the LogP [2] is reported as 3.46 and the “% efficacy” value [4] is reported as 100%.

In the case of `[H]/N=C(/C(=N\OCc1csc(NC(=O)OCCc2ccccc2)n1)c1ccccc1)N(O)CC` [Example V-4, 2-phenylethyl (4-{[({(1Z,2Z)-2-[ethyl(hydroxy)amino]-2-imino-1-phenylethylidene}amino)oxy]methyl}-1,3-thiazol-2-yl)carbamate], the chromatographic logP [1] is reported as 2.07.

Work on `Cn1oc(=O)nc1/C(=N\OCc1csc(Br)n1)c1ccccc1` [Example 99, 3-[(Z)-{[(2-bromo-1,3-thiazol-4-yl)methoxy]imino}(phenyl)methyl]-2-methyl-1,2,4-oxadiazol-5(2H)-one] yielded a chromatographic logP [1] of 2.68.

Molecule `Cn1oc(=O)nc1C(=NOCc1csc(NC(=O)SC(C)(C)C)n1)c1ccccc1` [Example 18] has an Eff. % [7] of 97%, a LogP [2] of 3.44 and an Eff. % [6] of 93%.

In the case of `COc1cccc(/C(=N/OCc2csc(NC(=O)OC(C)(C)C)n2)c2nc(=O)on2C)c1` [Example 34], the LogP [2] is reported as 3.13, the “% efficacy” value [4] is reported as 100% and the Eff. % [6] is reported as 95%.

In the case of `CC(Oc1ccccc1)C(=O)Nc1nc(CON=C(c2ccccc2)c2nc(=O)on2C)cs1` (stereo not shown) [Example 2], the Eff. % [7] is reported as 97%, the LogP [2] is reported as 3.15 and the Eff. % [6] is reported as 97%.

For `CCCCCCCC(=O)Nc1nc(CON=C(c2ccccc2)c2nc(=O)on2C)cs1` [Example 13], the Eff. % [7] was 95%, the LogP [2] was 3.94 and the Eff. % [6] was 99%.

With `C#CCCC(C)OC(=O)Nc1nc(CO/N=C(/c2ccccc2)c2nc(=O)on2C)cs1` (racemic) [Example 32] the “% efficacy” value [8] was 79%, the LogP [2] was 3.00 and the “% efficacy” value [4] was 99%.

Molecule `Cn1oc(=O)nc1C(=NOCc1csc(NC(=O)OC(C)(C)C)n1)c1ccccc1` [Example 20] has an Eff. % [7] of 92%, a LogP [2] of 3.06 and an Eff. % [6] of 94%.

With `Cn1oc(=O)nc1/C(=N\OCc1csc(NC(=S)Cc2ccc(Cl)cc2)n1)c1ccccc1` [Example 100, 2-(4-chlorophenyl)-N-{4-[({[(Z)-(2-methyl-5-oxo-2,5-dihydro-1,2,4-oxadiazol-3-yl)(phenyl)methylene]amino}oxy)methyl]-1,3-thiazol-2-yl}ethanethioamide] the chromatographic logP [1] was 4.04.

Work on `Cn1oc(=O)nc1/C(=N\OCc1csc(NC(=O)C2CCc3ccccc3O2)n1)c1ccccc1` (stereo not shown) [Example 22, N-{4-[({[(Z)-(2-methyl-5-oxo-2,5-dihydro-1,2,4-oxadiazol-3-yl)(phenyl)methylene]amino}oxy)methyl]-1,3-thiazol-2-yl}chromane-2-carboxamide] yielded an Eff. % [7] of 100%, a chromatographic logP [1] of 3.35 and an Eff. % [6] of 96%.

`Cn1oc(=O)nc1C(=NOCc1csc(NC(=O)COCc2ccccc2)n1)c1ccccc1` [Example 17] showed an Eff. % [7] of 100%, a LogP [2] of 3.06 and an Eff. % [6] of 94%.

In the case of `Cn1oc(=O)nc1/C(=N\OCc1csc(N)n1)c1ccccc1` [Example 4, 3-[(Z)-{[(2-amino-1,3-thiazol-4-yl)methoxy]imino}(phenyl)methyl]-2-methyl-1,2,4-oxadiazol-5(2H)-one], the chromatographic logP [1] is reported as 1.07.

In the case of `C#CCC(C)OC(=O)Nc1nc(CON=C(c2ccccc2)c2nc(=O)on2C)cs1` (stereo not shown) [Example 10], the Eff. % [7] is reported as 93%, the LogP [2] is reported as 2.80 and the Eff. % [6] is reported as 88%.

In the case of `Cn1oc(=O)nc1C(=NOCc1csc(NC(=O)OCCc2ccccc2)n1)c1ccccc1` [Example 14], the Eff. % [7] is reported as 95%, the LogP [2] is reported as 3.35 and the Eff. % [6] is reported as 99%.

Work on `Cn1oc(=O)nc1/C(=N\OCc1csc(NC(=O)C2COc3ccccc3O2)n1)c1ccccc1` (stereo not shown) [Example 9, N-{4-[({[(Z)-(2-methyl-5-oxo-2,5-dihydro-1,2,4-oxadiazol-3-yl)(phenyl)methylene]amino}oxy)methyl]-1,3-thiazol-2-yl}-2,3-dihydro-1,4-benzodioxine-2-carboxamide] yielded an Eff. % [7] of 98%, a chromatographic logP [1] of 3.11 and an Eff. % [6] of 97%.

In the case of `CN(O)C(=N)/C(=N\OCc1csc(N)n1)c1ccccc1` [Example V-2, (2Z)-2-{[(2-amino-1,3-thiazol-4-yl)methoxy]imino}-N-hydroxy-N-methyl-2-phenylethanimidamide], the chromatographic logP [1] is reported as 0.47.
